Test results published in patent US11414387B2, “Oxoacridinyl acetic acid derivatives and methods of use” (Stingthera, Inc., priority 2017, dated 2022).

How the values were obtained:
mSTING = mSTING (Mus musculus, UniProt Q3TBT3); test: Radiometric filtration binding competition assay, mSTING
Procedure: (§1) A radiometric filtration binding competition assay was performed to quantify the binding affinity of compounds of the present application for the human or mouse STING protein, or associated HAQ human isoform. […] The resulting dose response was fit by non-linear regression to determine an IC50 value, from which a Ki value for each compound was extrapolated.
(§2) The resulting complexes were then filtered, dried, and scintillation fluid was added and the remaining radio signal was measured to determine the degree of compound ligand inhibition. This assay format was optimized for both the WT and HAQ isoforms of the human protein and the mouse orthologue protein.
(§3) Probe Concentration: Minimum concentration that achieved max assay window • g. Assay Format: Scintillation Proximity Bead or Filtration Binding Plate • h. […] Assay incubation times for successive incubation steps
(§4) WT-hSWAT: WT_FBA_HIS-SUMO-hSWAT IC50 (μM) (“WT”=Wild-type); HAQ-hSWAT: HAQ_FBA_HIS-SUMO-hSWAT IC50 (μM) (“HAQ”=human HAQ allele of STING protein); and WT-mSWAT: MOUSE_FBA_HIS-SUMO-mnSWAT IC50 (μM) which is the mouse isoform of STING protein.

hSTING-WT = hSTING-WT (Homo sapiens (Human), UniProt Q86WV6, H232R); test: Radiometric filtration binding competition assay, hSTING-WT
Procedure: as §1, §2, §3, §4

mSTING-R232 = mSTING-R232 (Mus musculus, UniProt Q3TBT3); test: STING differential scanning fluorimetry (DSF) assay, mouse STING; conditions: net shift in melting temperature
hSTING-R232 = hSTING-R232 (Homo sapiens (Human), UniProt Q86WV6, H232R); test: STING differential scanning fluorimetry (DSF) assay, WT human STING; conditions: WT (R232) human STING aa140-379, net shift in melting temperature
hSTING-R232, sequence (Q86WV6 140-379 H232R): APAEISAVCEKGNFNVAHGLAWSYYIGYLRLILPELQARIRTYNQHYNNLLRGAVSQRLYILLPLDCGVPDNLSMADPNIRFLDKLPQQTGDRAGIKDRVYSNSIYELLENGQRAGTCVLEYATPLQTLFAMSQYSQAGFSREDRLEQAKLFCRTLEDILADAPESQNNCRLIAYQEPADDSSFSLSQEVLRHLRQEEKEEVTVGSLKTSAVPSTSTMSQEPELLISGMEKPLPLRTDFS

STING protein = STING protein (Homo sapiens (Human), UniProt Q86WV6, H232R); test: Cell based reporter assay of IRF activation (IRF-luciferase), THP1-dual-KI R232; conditions: read-out: THP1-dual-KI R232_IRF(Luciferase)_Activity Maximum measured (%)
STING protein, sequence (Q86WV6 whole entry H232R): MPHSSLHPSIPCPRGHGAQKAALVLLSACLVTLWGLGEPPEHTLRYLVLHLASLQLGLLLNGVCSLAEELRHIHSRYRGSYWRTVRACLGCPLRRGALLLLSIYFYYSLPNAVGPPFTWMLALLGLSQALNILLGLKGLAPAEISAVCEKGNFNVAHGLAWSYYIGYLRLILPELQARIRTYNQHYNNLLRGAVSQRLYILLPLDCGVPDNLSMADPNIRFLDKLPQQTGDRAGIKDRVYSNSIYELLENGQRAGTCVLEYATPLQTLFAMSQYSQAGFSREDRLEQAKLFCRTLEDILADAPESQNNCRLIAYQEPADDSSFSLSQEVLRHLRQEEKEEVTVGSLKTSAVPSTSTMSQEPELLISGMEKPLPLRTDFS

hSTING-WT, sequence (Q86WV6 140-379 H232R): as the sequence (Q86WV6 140-379 H232R) above

Row | IC50 (mSTING) [µM] | IC50 (hSTING-WT) [µM] | MOUSE DSF_6xHIS-SUMO Tm Shift (° C.) (mSTING-R232) | WT_DSF_hSWAT Tm Shift (° C.) (hSTING-R232) | Emax (STING protein) [%] | SMILES
1 | < 20 | 100 to 300 | C (“C” = 5-15° C.) | B (“B” = 0-2° C.) | < 5 | O=C(O)Cn1c2cc(-c3ccc(Cl)cc3)ccc2c(=O)c2ccc(Cl)c(Cl)c21 [Compound 156]
2 | < 20 | 100 to 300 | D (“D” > 15° C.) | D (“D” > 7° C.) | > 50 | COc1c(Cl)ccc2c(=O)c3ccc(SC(C)C)cc3n(CC(=O)O)c12 [Compound 232]
3 | < 20 | 20 to 100 | D (“D” > 15° C.) | D (“D” > 7° C.) | > 50 | COc1ccccc1Nc1ccc2c(=O)c3ccc(Cl)c(OC)c3n(CC(=O)O)c2c1 [Compound 298]
4 | > 300 | > 300 | C (“C” = 5-15° C.) | B (“B” = 0-2° C.) | < 5 | O=C(O)Cn1c2ccccc2c(=O)c2ccc(Cl)c(OCCCO)c21 [Compound 329]
5 | < 20 | < 20 | D (“D” > 15° C.) | D (“D” > 7° C.) | > 50 | COc1c(Cl)ccc2c(=O)c3ccc(NC4CCC4)cc3n(CC(=O)O)c12 [Compound 292]
6 | 20 to 100 | 100 to 300 | C (“C” = 5-15° C.) | D (“D” > 7° C.) | > 50 | CCOc1c(Cl)ccc2c(=O)c3ccccc3n(CC(=O)O)c12 [Compound 244]
7 | < 20 | 20 to 100 | D (“D” > 15° C.) | D (“D” > 7° C.) | > 50 | CCSc1ccc2c(=O)c3ccc(Cl)c(OC)c3n(CC(=O)O)c2c1 [Compound 231]
8 | < 20 | < 20 | D (“D” > 15° C.) | D (“D” > 7° C.) | > 50 | COc1c(Cl)ccc2c(=O)c3ccc(-c4ccc(O)cc4)cc3n(CC(=O)O)c12 [Compound 269]
9 | < 20 | < 20 | D (“D” > 15° C.) | D (“D” > 7° C.) | < 5 | COc1c(Cl)ccc2c(=O)c3ccc(Nc4cccc(O)c4)cc3n(CC(=O)O)c12 [Compound 235]
10 | 100 to 300 | 100 to 300 | C (“C” = 5-15° C.) | C (“C” = 2-7° C,) | 25 to 50 | Cc1ccc2c(=O)c3ccc(Cl)c(OCC4CC4)c3n(CC(=O)O)c2c1 [Compound 325]
11 | < 20 | < 20 | D (“D” > 15° C.) | D (“D” > 7° C.) | > 50 | COc1c(Cl)ccc2c(=O)c3ccc(Nc4ccc(OC(F)(F)F)cc4)cc3n(CC(=O)O)c12 [Compound 266]
12 | < 20 | < 20 | D (“D” > 15° C.) | D (“D” > 7° C.) | > 50 | COc1c(Cl)ccc2c(=O)c3ccc(Nc4ccccc4Cl)cc3n(CC(=O)O)c12 [Compound 267]
13 | < 20 | < 20 | D (“D” > 15° C.) | D (“D” > 7° C.) | > 50 | CN(C)c1c(Cl)ccc2c(=O)c3ccc(C(C)(C)C)cc3n(CC(=O)O)c12 [Compound 324]
14 | 20 to 100 | 20 to 100 | D (“D” > 15° C.) | D (“D” > 7° C.) | > 50 | CCN(C)c1c(Cl)ccc2c(=O)c3ccc(C)cc3n(CC(=O)O)c12 [Compound 307]
15 | < 20 | 20 to 100 | D (“D” > 15° C.) | D (“D” > 7° C.) | > 50 | COc1c(Cl)ccc2c(=O)c3ccc(SC)cc3n(CC(=O)O)c12 [Compound 234]
